The values below come from patent US4244954A, “Acridine compounds and methods of combatting viruses with them” (Sterling Drug Inc., priority 1978, dated 1981).

The structures appear in SMILES notation. Where two headings read alike, the source gives them in different places.

The test system of data set [1] is herpes simplex virus type 2. Put plainly: in vitro antiviral activity, serial dilution, herpes simplex virus type 2. It is filed as cell-based. The following applies: Human alphaherpesvirus 2. The method, then: (§1) Antiviral activity was determined in vitro by the conventional serial dilution technique against selected virus species such as herpes simplex virus types 1 and 2. In vivo antiviral activity was determined against herpes virus in the mouse genital model and the guinea pig skin infection model.

The subject of another data set is herpes simplex virus 1. As to the kind of experiment: in vitro antiviral activity, serial dilution, herpes simplex virus type 1. The note with it: Human alphaherpesvirus 1, read-out: concentration at which active against herpes simplex virus 1. It is filed as cell-based. The method, then: as §1
The test system of the next data set is herpes simplex type 2. Put plainly: in vivo antiviral activity, mouse genital model. Set-up: species or system mice. As to the method:
as §1

The subject of data set [2] is six herpes simplex strains. Put plainly: plaque count reduction, six herpes simplex strains. The note with it: at 4-10 mg./ml. It counts as cell-based, herpes simplex virus.
The test system of data set [3] is herpes simplex virus type 1. As to the kind of experiment: in vivo antiviral activity, guinea pig skin infection model. The note with it: after 48 hours of topical treatment. As to the method:
as §1

In data set [4] the test system is influenza virus A2 /Jap 170. As to the kind of experiment: influenza virus titers in ferret nasal washings. It is filed as in vivo. The following applies: 100-200 mg/kg/day.
Data set [5] relates to Trypanosoma brucei. It is filed as in vivo, mice. The note with it: for curative effect against T. brucei infection: mice, oral. The method, then:
(§2) Trypanosomacidal activity was determined against Trypanosoma brucei in mice. In a curative test medication was given (orally or parenterally) as a single dose or daily in equally subdivided doses eight hours apart for four days beginning 72 hours after intraperitoneal infection. In a prophylactic-suppressive test the total daily medication was given as a single treatment one day prior to infection, and thereafter for three consecutive days the total daily medications were administered as equally subdivided doses eight hours apart. The infection was uniformly fatal in five to six days in the absence of therapy. Chemotherapeutic effectiveness was based on extension of survival time. Tests were considered terminated 28 days after infection.

The test system of data set [6] is Trypanosoma brucei. As to the kind of experiment: prophylactic-suppressive test against Trypanosoma brucei infection in mice. It counts as in vivo. The following applies: oral, 50 mg per kg per day. As to the method: as §2
The test system of the next data set is Endameba criceti. As to the kind of experiment: amebicidal activity in infected hamsters. It counts as in vivo. The following applies: Mesocricetus auratus, 72 h, oral, read-out: dose at which active orally against Endameba criceti in hamsters. As to the method:
Amebicidal activity was determined by oral administration of the test compound orally to hamsters infected with Endameba criceti and the amount of drug necessary to clear the animals of infection in three days was determined.

The subject of a further data set is S. aureus. As to the kind of experiment: in vitro antimicrobial activity, serial dilution, S. aureus. It is filed as cell-based. The following applies: Staphylococcus aureus, read-out: minimum inhibitory concentration (MIC), bacteriostatic activity against S. aureus. As to the method:
(§3) The antimicrobial activity of the compounds was determined in vitro by the conventional serial dilution technique against several species of bacteria and fungi, e.g. S. aureus, S. pyogenes, C. albicans, T. mentagrophytes.

A further data set has as its system S. pyogenes. Put plainly: in vitro antimicrobial activity, serial dilution, S. pyogenes. It is filed as cell-based. The following applies: Streptococcus pyogenes, read-out: minimum inhibitory concentration (MIC), bacteriostatic activity against S. pyogenes. The method, then:
as §3

Where [7] appears, read: read-out: concentration at which active in vitro against herpes simplex virus type 2.
The mark [8] stands for this setting: in vitro, read-out: concentration at which active against herpes simplex virus 2.

For `CN(C)CCOc1ccc2c(c1)c(=O)c1ccccc1n2C` [Example 1, 2-(2-Dimethylaminoethoxy)-10-methyl-9(10H)-acridinone], the minimal effective concentration in data set [1] (setting [7]) is 3 to 6 µg/mL.
`Cn1c2ccccc2c(=O)c2cc(OCCN3CCCC3)ccc21` [Example 7, 2-[2-(1-Pyrrolidyl)ethoxy]-10-methyl-9(10H)-acridinone]: the minimal effective concentration (with herpes simplex virus 1; in [1] (setting [8])) was 6 µg/mL in each case. In the data set with herpes simplex type 2 (mice, genital infection), the “effect against herpes virus 2 genital infection in mice” value is reported as “effective”.
In the case of `Cn1c2ccccc2c(=O)c2cc(OCCN3CCOCC3)ccc21` [Example 8, 2-[2-(4-Morpholinyl)ethoxy]-10-methyl-9(10H)-acridinone], the minimal effective concentration (with herpes simplex virus 1; in [1] (setting [8])) was 25 µg/mL each time.
As to `CN1CCN(CCOc2ccc3c(c2)c(=O)c2ccccc2n3C)CC1` [Example 9, 2-[2-(4-Methyl-1-piperazinyl)ethoxy]-10-methyl-9(10H)-acridinone], the minimal effective concentration (in the data set with herpes simplex virus 1; in data set [1] (setting [8])) was 25 µg/mL in each case.
On to `Cn1c2ccccc2c(=O)c2cc(OCCN3CCCCC3)ccc21` [Example 10, 2-[2-(1-Piperidyl)ethoxy]-10-methyl-9(10H)-acridinone], for which the minimal effective concentration in the data set with herpes simplex virus 1 came out at 6 µg/mL.
Consider `CCn1c2ccccc2c(=O)c2cc(OCCN3CCCC3)ccc21` [Example 11, 2-[2-(1-Pyrrolidyl)ethoxy]-10-ethyl-9(10H)-acridinone], for which the minimal effective concentration (in the data set on herpes simplex virus 1; in [1] (setting [8])) was 25 µg/mL each time.
As for `Cn1c2ccccc2c(=O)c2cccc(OCCN3CCCC3)c21` [Example 13, 4-[2-(1-Pyrrolidyl)ethoxy]-10-methyl-9(10H)-acridinone], the minimal effective concentration in data set [1] (setting [8]) came to 12 µg/mL.
For the compound `Cn1c2ccccc2c(=O)c2cccc(OCCN3CCCCC3)c21` [Example 15, 4-[2-(1-Piperidyl)ethoxy]-10-methyl-9(10H)-acridinone], the minimal effective concentration in [1] (setting [8]) turned out to be 12 µg/mL.
In the case of `Cn1c2ccccc2c(=O)c2cc(OCCCCN3CCCC3)ccc21` [Example 16, 2-[4-(1-Pyrrolidyl)butoxy]-10-methyl-9(10H)-acridinone], the minimal effective concentration (with herpes simplex virus 1; in data set [1] (setting [8])) was 6 µg/mL in each case.
On to `CN(C)CCOc1cccc2c1c(=O)c1ccccc1n2C` [Example 27, 1-(2-Dimethylaminoethoxy)-10-methyl-9(10H)-acridinone], for which the minimal effective concentration (with herpes simplex virus 1; in data set [1] (setting [8])) was 6 µg/mL throughout. Further, in the data set on herpes simplex type 2 (concentrations ranging from 2.5 to 10%), the “survival in mice with genital herpes simplex type 2 infection” value is 50-90%. For the same compound, the “reduction of the plaque counts of six herpes simplex strains” value in data set [2] is reported as “at least 50%”. In data set [3], the “reduction of virus titer of herpes simplex virus type 1 in guinea pig skin infection” value is “more than 99%”. Further, the “reduction in influenza virus A2 /Jap 170 titers in ferret nasal washings” value in data set [4] is “significant reduction”.
For `Cn1c2ccccc2c(=O)c2c(OCCN3CCCCC3)cccc21` [Example 33, 1-[2-(1-Piperidyl)ethoxy]-10-methyl-9(10H)-acridinone], in the data set on herpes simplex virus 1, the minimal effective concentration came out at 6 µg/mL.
Consider `CN1C2CCCC1CC(Oc1cccc3c1c(=O)c1ccccc1n3C)C2` (stereo not drawn) [Example 34, exo-1-(9-Methylgranatanin-3-yloxy)-10-methyl-9(10H)-acridinone], for which the minimal effective concentration (in the data set with herpes simplex virus 1; in [1] (setting [8])) was 25 µg/mL throughout.
Consider `CN(C)CCOc1ccc2c(c1)C(O)(c1ccccc1)c1ccccc1N2C` (stereo not drawn) [Example 37, 2-(2-Dimethylaminoethoxy)-9,10-dihydro-10-methyl-9-phenyl-9-acridinol], for which the “effect against T. brucei infection, intramuscular” value with Trypanosoma brucei [5] (intramuscularly, single dose of 200 mg/kg three days after infection) was “completely effective”. For the same compound, the “effect against T. brucei infection, intraperitoneal” value in the data set on Trypanosoma brucei [5] (intraperitoneally, single dose of 200 mg/kg three days after infection) is reported as “completely effective”. The “curative effect against T. brucei infection” value in the data set on Trypanosoma brucei [5] (25 mg/kg/day×4) was “completely effective”. Further, in the data set on Trypanosoma brucei [5] (subcutaneously, single dose of 200 mg/kg three days after infection), the “effect against T. brucei infection, subcutaneous” value is “completely effective”. The “prophylactic effect against T. brucei infection” value with Trypanosoma brucei [6] was “completely effective”.
Regarding `CCN(CC)CCOc1ccc2c(c1)C(O)(c1ccccc1)c1ccccc1N2C` (stereo not drawn) [Example 38, 2-(2-Diethylaminoethoxy)-9,10-dihydro-10-methyl-9-phenyl-9-acridinol], the “curative effect against T. brucei infection” value in the data set with Trypanosoma brucei [5] (50 mg/kg/day×4) was “completely effective”.
Take `COc1ccc(C2(O)c3ccccc3N(C)c3ccc(OCCN(C)C)cc32)cc1` (stereo not drawn) [Example 65, 2-(2-Dimethylaminoethoxy)-9,10-dihydro-9-(4-methoxyphenyl)-10-methyl-9-acridinol]: the “curative effect against T. brucei infection” value in the data set with Trypanosoma brucei [5] (200 mg/kg/day×4) is given as “completely effective”.
Regarding `CN(C)CCOc1ccc2c(c1)c(-c1ccccc1)c1ccccc1[n+]2C.Cl.[Cl-]` [Example 68, 2-(2-Dimethylaminoethoxy)-10-methyl-9-phenylacridinium chloride hydrochloride], the “curative effect against T. brucei infection” value in the data set on Trypanosoma brucei [5] (25 mg/kg/day×4) is recorded as “completely effective”. The “toxicity upon parenteral administration” value with Trypanosoma brucei [5] (mouse, in vivo) is recorded as “toxic”. Moreover, in the data set on Trypanosoma brucei [5] (parenteral, 50 mg/kg dose level), the “curative effect against T. brucei infection, parenteral” value is “some curative effect”.
Consider `CN(C)CCOc1ccc2c(c1)c(Cc1ccccc1)c1ccccc1[n+]2C.Cl.[Cl-]` [Example 78, 2-(2-Dimethylaminoethoxy)-10-methyl-9-benzylacridinium chloride hydrochloride], for which the “curative effect against T. brucei infection” value in the data set with Trypanosoma brucei [5] (100 mg/kg/day×4) was “completely effective”. Further, the minimal effective dose in the data set on Endameba criceti is 100 mg/kg.
Take `CN(C)CCOc1ccc2c(c1)c(Cc1ccc(F)cc1)c1ccccc1[n+]2C.Cl.[Cl-]` [Example 79, 2-(2-Dimethylaminoethoxy)-10-methyl-9-(4-fluorobenzyl)acridinium chloride hydrochloride]: the “curative effect against T. brucei infection” value with Trypanosoma brucei [5] (200 mg/kg/day×4) is recorded as “completely effective”. The minimal effective dose with Endameba criceti is 100 mg/kg.
On to `Cc1ccc(Cc2c3ccccc3[n+](C)c3ccc(OCCN(C)C)cc23)cc1.Cl.[Cl-]` [Example 80, 2-(2-Dimethylaminoethoxy)-10-methyl-9-(4-methylbenzyl)acridinium chloride hydrochloride], for which the “curative effect against T. brucei infection” value in the data set on Trypanosoma brucei [5] (200 mg/kg/day×4) is on record as “ineffective”. Also, the MIC in the data set with S. aureus stood at 15.6 µg/mL; in the data set with S. pyogenes, 7.8 µg/mL.
Regarding `CN(C)CCOc1ccc2c(Cc3ccccc3)c3ccccc3[n+](C)c2c1.Cl.[Cl-]` [Example 81, 3-(2-Dimethylaminoethoxy)-10-methyl-9-benzylacridinium chloride hydrochloride], the “curative effect against T. brucei infection” value in the data set on Trypanosoma brucei [5] (100 mg/kg/day×4) is “completely effective”. Also, the MIC in the data set on S. aureus (in vitro) and in the data set on S. pyogenes was 31.3 µg/mL throughout.
Regarding `CN(C)CCCOc1ccc2c(Cc3ccccc3)c3ccccc3[n+](C)c2c1.Cl.[Cl-]` [Example 82, 3-(3-Dimethylaminopropoxy)-10-methyl-9-benzylacridinium chloride hydrochloride], the “curative effect against T. brucei infection” value in the data set with Trypanosoma brucei [5] (100 mg/kg/day×4) is “completely effective”. The MIC with S. aureus (in vitro) amounted to 31.3 µg/mL.
As for `CN(C)CCOc1ccc2c(c1)c(Cc1ccc(Cl)cc1)c1ccccc1[n+]2C.Cl.[Cl-]` [Example 83, 2-(2-Dimethylaminoethoxy)-10-methyl-9-(4-chlorobenzyl)acridinium chloride hydrochloride], the minimal effective concentration in [1] (concentration at which active, read-out: antiviral activity against herpes type 2) was found to be 25 µg/mL. Moreover, in the data set on Trypanosoma brucei [5] (200 mg/kg/day×4), the “curative effect against T. brucei infection” value is reported as “ineffective”. In the data set on S. aureus (in vitro), the MIC amounted to 7.8 µg/mL.
For `CN(C)CCOc1ccc2c(c1)c(Cc1cccc(F)c1)c1ccccc1[n+]2C.Cl.[Cl-]` [Example 84, 2-(2-Dimethylaminoethoxy)-10-methyl-9-(3-fluorobenzyl)acridinium chloride hydrochloride], in the data set with Trypanosoma brucei [5] (200 mg/kg/day×4), the “curative effect against T. brucei infection” value is recorded as “completely effective”. For the same compound, the MIC in the data set with S. aureus (in vitro) and in the data set with S. pyogenes was 15.6 µg/mL each time.
For `CCN(CC)CCOc1ccc2c(c1)c(Cc1ccccc1)c1ccccc1[n+]2C.Cl.[Cl-]` [Example 85, 2-(2-Diethylaminoethoxy)-10-methyl-9-benzylacridinium chloride hydrochloride], the “curative effect against T. brucei infection” value with Trypanosoma brucei [5] (100 mg/kg/day×4) is on record as “completely effective”. Moreover, the MIC with S. aureus (in vitro) and with S. pyogenes was 31.3 µg/mL in each case.
With `COc1ccc2c(c1)c(Cc1ccccc1)c1ccc(OCCN(C)C)cc1[n+]2C.Cl.[Cl-]` [Example 87, 3-(2-Dimethylaminoethoxy)-7-methoxy-10-methyl-9-benzylacridinium chloride hydrochloride], in [1] (setting [7]), the minimal effective concentration came to 12 µg/mL. Besides, the “effect against T. brucei” value with Trypanosoma brucei [5] (200 mg/kg/day×4, route and test type not given) was “ineffective”.
